From ChEMBL document CHEMBL1132901, “Synthesis and structure-activity relationships of quaternary ammonium cephalosporins with 3-pyrazolylpyridinium derivatives” (2000)
Values after ≈ are worked out from the molar mass of the structure shown.

Legend:
Klebsiella oxytoca = assay: In vitro antimicrobial activity against Klebsiella oxytoca 1082; format: functional
Staphylococcus aureus [1] = assay: In vitro antimicrobial activity against Methicillin resistant Staphylococcus aureus (MRSA); format: functional
Escherichia coli [2] = assay: In vitro antimicrobial activity against Escherichia coli DC 2; format: functional
Pseudomonas aeruginosa [3] = assay: In vitro antimicrobial activity against Pseudomonas aeruginosa 9027; format: functional
Staphylococcus aureus [4] = assay: In vitro antimicrobial activity against Staphylococcus aureus 503; format: functional
Escherichia coli [5] = assay: In vitro antimicrobial activity against Escherichia coli TEM; format: functional
Klebsiella aerogenes = assay: In vitro antimicrobial activity against Klebsiella aerogenes 1522 E; format: functional
Staphylococcus aureus [6] = assay: In vitro antimicrobial activity against Staphylococcus aureus 285; format: functional
Escherichia coli [7] = assay: In vitro antimicrobial activity against Escherichia coli DC 0; format: functional
Salmonella typhimurium = assay: In vitro antimicrobial activity against Salmonella Typhimurium; format: functional, Salmonella enterica subsp. enterica serovar Typhimurium; settings: Salmonella enterica
Streptococcus pyogenes [8] = assay: Compound has been evaluated for in vitro antimicrobial activity against Streptococcus pyogenes A 308; format: functional
Escherichia coli [9] = assay: In vitro antimicrobial activity against Escherichia coli 055; format: functional
Enterobacter cloacae [10] = assay: In vitro antimicrobial activity against Enterobacter 1321 E; format: functional
Enterococcus faecium = assay: In vitro antimicrobial activity against Streptococcus faecium MD 8b; format: functional
Enterobacter cloacae [11] = assay: In vitro antimicrobial activity against Enterobacter cloacae P99; format: functional
Pseudomonas aeruginosa [12] = assay: In vitro antimicrobial activity against Pseudomonas aeruginosa 1592 E; format: functional
Escherichia coli [13] = assay: In vitro antimicrobial activity against Escherichia coli 1507E; format: functional
Streptococcus pyogenes [14] = assay: In vitro antimicrobial activity against Streptococcus pyogenes SG 511; format: functional
Pseudomonas aeruginosa [15] = assay: In vitro antimicrobial activity against Pseudomonas aeruginosa 1771 M; format: functional
Pseudomonas aeruginosa [16] = assay: In vitro antimicrobial activity against Pseudomonas aeruginosa 1771; format: functional
Streptococcus pyogenes [17] = assay: In vitro antimicrobial activity against Streptococcus pyogenes 77A; format: functional
Streptococcus pyogenes [18] = assay: In vitro antimicrobial activity against Streptococcus pyogenes A 308; format: functional

SMILES | MIC (Streptococcus pyogenes [18]) [µg/mL] | MIC (Klebsiella oxytoca) [µg/mL] | MIC (Escherichia coli [2]) [µg/mL] | MIC (Pseudomonas aeruginosa [3]) [µg/mL] | MIC (Staphylococcus aureus [4]) [µg/mL] | MIC (Escherichia coli [5]) [µg/mL] | MIC (Klebsiella aerogenes) [µg/mL] | MIC (Staphylococcus aureus [6]) [µg/mL] | MIC (Escherichia coli [7]) [µg/mL] | MIC (Salmonella typhimurium) [µg/mL] | MIC (Escherichia coli [9]) [µg/mL] | MIC (Enterobacter cloacae [10]) [µg/mL] | MIC (Enterococcus faecium) [µg/mL] | MIC (Enterobacter cloacae [11]) [µg/mL] | MIC (Pseudomonas aeruginosa [12]) [µg/mL] | MIC (Escherichia coli [13]) [µg/mL] | MIC (Streptococcus pyogenes [14]) [µg/mL] | MIC (Pseudomonas aeruginosa [15]) [µg/mL] | MIC (Pseudomonas aeruginosa [16]) [µg/mL] | MIC (Streptococcus pyogenes [17]) [µg/mL] | other results
CO/N=C(/C(=O)NC1C(=O)N2C(C(=O)[O-])=C(C[n+]3cccc4c3CCC4)CSC12)c1csc(N)n1 (stereo not drawn) |  | 1.56 (≈ 3.04 µM) | 0.013 (≈ 0.0253 µM) | 3.12 (≈ 6.07 µM) | 0.098 (≈ 0.19 µM) | 0.049 (≈ 0.0952 µM) | 0.025 (≈ 0.0486 µM) | 0.781 (≈ 1.52 µM) | 0.013 (≈ 0.0253 µM) | 0.025 (≈ 0.0486 µM) | 0.025 (≈ 0.0486 µM) | 0.013 (≈ 0.0253 µM) | 1.56 (≈ 3.04 µM) | 3.12 (≈ 6.07 µM) | 1.56 (≈ 3.04 µM) | 0.025 (≈ 0.0486 µM) | 0.391 (≈ 0.76 µM) | 0.195 (≈ 0.379 µM) | 0.781 (≈ 1.52 µM) | 0.007 (≈ 0.0136 µM) | MIC (Staphylococcus aureus [1]): 25 µg/mL (≈ 48.6 µM); MIC (Streptococcus pyogenes [8]): 0.007 µg/mL (≈ 0.0136 µM)
CO/N=C(/C(=O)N[C@@H]1C(=O)N2C(C(=O)[O-])=C(C[n+]3cccc(-c4cc(CO)nn4CCO)c3)CS[C@H]12)c1csc(N)n1 | 0.049 (≈ 0.0797 µM) | 12.5 (≈ 20.3 µM) | 0.098 (≈ 0.159 µM) | 25 (≈ 40.7 µM) | 1.56 (≈ 2.54 µM) | 0.781 (≈ 1.27 µM) | 0.195 (≈ 0.317 µM) | 6.25 (≈ 10.2 µM) | 0.195 (≈ 0.317 µM) | 0.391 (≈ 0.636 µM) | 0.098 (≈ 0.159 µM) | 0.098 (≈ 0.159 µM) | 12.5 (≈ 20.3 µM) | > 50 | 12.5 (≈ 20.3 µM) | 0.391 (≈ 0.636 µM) | 6.25 (≈ 10.2 µM) | 0.781 (≈ 1.27 µM) | 6.25 (≈ 10.2 µM) | 0.049 (≈ 0.0797 µM) | MIC (Staphylococcus aureus [1]): 25 µg/mL (≈ 40.7 µM)
CO/N=C(/C(=O)N[C@@H]1C(=O)N2C(C(=O)[O-])=C(C[n+]3cccc(-c4cc(C)[nH]n4)c3)CS[C@H]12)c1csc(N)n1 | 0.007 (≈ 0.0126 µM) | 1.56 (≈ 2.82 µM) | 0.013 (≈ 0.0234 µM) | 6.25 (≈ 11.3 µM) | 0.195 (≈ 0.352 µM) | 0.098 (≈ 0.177 µM) | 0.049 (≈ 0.0883 µM) | 0.781 (≈ 1.41 µM) | 0.025 (≈ 0.0451 µM) | 0.098 (≈ 0.177 µM) | 0.025 (≈ 0.0451 µM) | 0.013 (≈ 0.0234 µM) | 3.12 (≈ 5.63 µM) | 50 (≈ 90.2 µM) | 3.12 (≈ 5.63 µM) | 0.098 (≈ 0.177 µM) | 0.781 (≈ 1.41 µM) | 0.781 (≈ 1.41 µM) | 1.56 (≈ 2.82 µM) | 0.007 (≈ 0.0126 µM) | MIC (Staphylococcus aureus [1]): 25 µg/mL (≈ 45.1 µM)

More lines, main results first:

MIC (Streptococcus pyogenes [18]) [µg/mL] | SMILES | MIC (Klebsiella oxytoca) [µg/mL] | MIC (Escherichia coli [2]) [µg/mL] | MIC (Pseudomonas aeruginosa [3]) [µg/mL] | MIC (Staphylococcus aureus [4]) [µg/mL] | MIC (Escherichia coli [5]) [µg/mL] | MIC (Klebsiella aerogenes) [µg/mL] | MIC (Staphylococcus aureus [6]) [µg/mL] | MIC (Escherichia coli [7]) [µg/mL] | MIC (Salmonella typhimurium) [µg/mL] | MIC (Escherichia coli [9]) [µg/mL] | MIC (Enterobacter cloacae [10]) [µg/mL] | MIC (Enterococcus faecium) [µg/mL] | MIC (Enterobacter cloacae [11]) [µg/mL] | MIC (Pseudomonas aeruginosa [12]) [µg/mL] | MIC (Escherichia coli [13]) [µg/mL] | MIC (Streptococcus pyogenes [14]) [µg/mL] | MIC (Pseudomonas aeruginosa [15]) [µg/mL] | MIC (Pseudomonas aeruginosa [16]) [µg/mL] | MIC (Streptococcus pyogenes [17]) [µg/mL] | other results
0.025 (≈ 0.0438 µM) | CO/N=C(/C(=O)N[C@@H]1C(=O)N2C(C(=O)[O-])=C(C[n+]3cccc(-c4cc(CO)[nH]n4)c3)CS[C@H]12)c1csc(N)n1 | 3.12 (≈ 5.48 µM) | 0.025 (≈ 0.0438 µM) | 6.25 (≈ 11 µM) | 0.391 (≈ 0.685 µM) | 0.195 (≈ 0.342 µM) | 0.049 (≈ 0.0859 µM) | 1.56 (≈ 2.74 µM) | 0.049 (≈ 0.0859 µM) | 0.098 (≈ 0.172 µM) | 0.049 (≈ 0.0859 µM) | 0.049 (≈ 0.0859 µM) | 3.12 (≈ 5.48 µM) | > 12.5 | 3.12 (≈ 5.48 µM) | 0.098 (≈ 0.172 µM) | 1.56 (≈ 2.74 µM) | 0.391 (≈ 0.685 µM) | 1.56 (≈ 2.74 µM) | 0.013 (≈ 0.0228 µM) | 
0.049 (≈ 0.0906 µM) | CO/N=C(/C(=O)N[C@@H]1C(=O)N2C(C(=O)[O-])=C(C[n+]3cccc(-c4cc[nH]n4)c3)CS[C@H]12)c1csc(N)n1 | 6.25 (≈ 11.6 µM) | 0.049 (≈ 0.0906 µM) | 25 (≈ 46.2 µM) | 0.781 (≈ 1.44 µM) | 0.195 (≈ 0.361 µM) | 0.098 (≈ 0.181 µM) | 3.12 (≈ 5.78 µM) | 0.098 (≈ 0.181 µM) | 0.195 (≈ 0.361 µM) | 0.049 (≈ 0.0906 µM) | 0.098 (≈ 0.181 µM) | 6.25 (≈ 11.6 µM) | > 25 | 12.5 (≈ 23.1 µM) | 0.195 (≈ 0.361 µM) | 3.12 (≈ 5.78 µM) | 3.12 (≈ 5.78 µM) | 6.25 (≈ 11.6 µM) | 0.025 (≈ 0.0462 µM) | 
0.049 (≈ 0.0838 µM) | CO/N=C(/C(=O)N[C@@H]1C(=O)N2C(C(=O)[O-])=C(C[n+]3cccc(-c4cc(CO)nn4C)c3)CS[C@H]12)c1csc(N)n1 | 6.25 (≈ 10.7 µM) | 0.049 (≈ 0.0838 µM) | 25 (≈ 42.8 µM) | 0.781 (≈ 1.34 µM) | 0.195 (≈ 0.334 µM) | 0.098 (≈ 0.168 µM) | 3.12 (≈ 5.35 µM) | 0.049 (≈ 0.0838 µM) | 0.195 (≈ 0.334 µM) | 0.049 (≈ 0.0838 µM) | 0.049 (≈ 0.0838 µM) | 6.25 (≈ 10.7 µM) | > 25 | 12.5 (≈ 21.4 µM) | 0.098 (≈ 0.168 µM) | 3.12 (≈ 5.35 µM) | 0.391 (≈ 0.669 µM) | 3.12 (≈ 5.35 µM) | 0.025 (≈ 0.0428 µM) | 
